According to patent US8673281B2 (BioCis Pharma Oy, priority 2003, dated 2014):
Entries after “also recorded” stand apart in the source; their conditions may differ.

Tests used:
neutrophil cytosol = assay: UCA metabolism in neutrophil cytosol (TCA precipitation, scintillation counting, HPLC); format: in vitro ADME, human
Procedure: An aminopropyl stationary phase column Lichrosorb NH2, Hibar RT, 250×4 mm, 5 μm (Merck, Darmstadt, Germany) was used. The eluent was a 50% (v/v) mixture of acetonitrile and a solution of 2% (v/v) acetic acid and 0.5% (w/v) ammonium acetate in water (pH ca. 5). The isomers were detected at 268 nm, and the retention times were Tr(cis) 3.7 min and Tr(trans) 5.4 min.
Samples were mixed with OptiPhase HiSafe 2 scintillation liquid (EG&G Wallac, Turku, Finland) and [^14C]UCA radioactivity measured in RackBeta 1214 scintillation counter (EG&G Wallac). The counting efficiency was 96.7%±0.12% (mean±SEM, n=48).
Next, we examined whether the [^14C]UCA in the cytosol was metabolized by neutrophils after the uptake by determining how much of the radioactive label was associated with intact UCA. This was carried out by precipitating the cytosolic proteins of [^14C]UCA-labeled neutrophils with 10% trichloracetic acid (TCA) on ice overnight. The amount of radioactive label was then measured both in the precipitate and in the protein-free supernatant by scintillation counting, and the content of intact UCA in the supernatant by HPLC.

neutrophils [1] = assay: Monitoring of intracellular pH (BCECF flow cytometry, nigericin calibration); format: cell-based, human; conditions: for effect on intracellular BCECF signal: extracellular pH adjusted to 7.4
Procedure: Intracellular pH levels in neutrophils were monitored with flow cytometry utilizing a pH-sensitive fluorescent dye 2′,7′-bis-(2-carboxyethyl)-5-(and-6)-carboxyfluorescein (BCECF, acetoxymethyl ester; Molecular Probes, Leiden, The Netherlands). About 30×10^6 cells were incubated in 10 ml HBSS, pH 7.4, containing 0.35 μM BCECF at 25° C. for 30 min, washed twice in HBSS, and resuspended in 1 ml of 154 mM NaCl. Aliquot (235 μl) of the incubation medium with known UCA concentrations and checked pH was applied to the cells (4.5×10^5 cells/15 μl NaCl) in polystyrene tubes, incubated at 25° C. for about 20 min, and analyzed in a flow cytometer.
Calibration of intracellular pH was performed in situ using the K^+/H^+ ionophore nigericin. An excess of pH calibration buffers (10 mM Pipes, 131 mM KCl, pH adjusted to 6.10, 6.50, 6.80, 7.10, 7.40, and 7.60 or 7.70) and 10 μM nigericin was added to the BCECF-labelled cells in 154 mM NaCl. The cells were kept at room temperature and analysed by flow cytometry within 45 min. Cells incubated with or without UCA were analysed for intracellular pH simultaneously. The pH was adjusted to the same values as those in the calibration buffers. Intracellular pH was determined from a BCECF fluorescence intensity calibration curve.

neutrophils [2] = assay: Respiratory burst activity, opsonized zymosan-induced chemiluminescence; format: cell-based, human; conditions: 3 mM UCA
Procedure: The respiratory burst activity was used as a measure of neutrophil function. The UCA isomers were tested in a chemiluminescence assay with opsonized zymosan as described (Kivistö et al. 1996). The peak values were recorded.
To examine how the cytosol-acidifying effect of UCA correlates with the previously reported inhibition of neutrophil respiratory burst activity, we measured the effect of 3 mM UCA on opsonized zymosan-induced chemiluminescence by the same batch of neutrophils and in the same experimental conditions described above, i.e. when the pH of the test solution was adjusted back to its initial level after UCA addition. […] In the same conditions, cis-UCA suppressed the respiratory burst activity by 15%±8.4% and 44%±1.3%, respectively. […] The corresponding inhibitions for cis-UCA were 41%±10% at pH 6.60±0.02 (nominal pH 7.4) and 48%±1.6% at pH 6.33±0.07 (nominal pH 6.5).

[3] = pH effect of UCA isomers on incubation buffers; format: physicochemical; conditions: for pH of test solution after UCA supplementation: 3 mM UCA, unadjusted; for effect on pH of HBSS buffer: HBSS adjusted to pH 6.5 prior to UCA addition
Excerpt: As such, UCA resembles small ions (e.g., K^+, Na^+, H^+, […]) which enter the cell and modulate cell functions by altering the physico-chemical micro-environment (pH, ion potential, ion strength) of the cytosol. Therefore, we hypothesized that the high levels of intact UCA may provoke cellular changes simply due to its passive presence in the cytosol as an acid. […] Such a possibility was approached by testing the effect of UCA on pH first in a buffer solution and then in intact cells. […]

[4] = Protonation state calculated with the Henderson-Hasselbalch Equation; conditions: pH 6.5
Excerpt: It can be hypothesized that the ability of UCA to acidify cytosol in living cells depends on two major parameters: the pH of the extracellular space and the initial pH of the cytosol. Because UCA is found mainly in the skin, one should consider these two parameters in the context of the physiological environment. It is well known that the human skin has an acid mantle with a surficial pH around 4-6. When the stratum corneum is stripped layer by layer, the pH increases gradually and, after total removal of the stratum corneum, the pH in the remaining epidermis is about 6.9 (Öhman & Vahlquist, 1994). In deeper layers, the almost neutral pH of the interior body is reached. A recent analysis provides evidence that UCA is the major pH-regulating factor in the human stratum corneum (Krien & Kermici 2000). The majority of UCA resides in the stratum corneum; however, a significant amount of UCA diffuses into and evidently also through the (epi)dermis, because elevated levels of cis-UCA can be detected in the urine within 1-4 h following total-body UVB exposure (Kammayer et al. 1997). […] In contrast, at a pH below the imidazolyl pKa's, UCA would be mainly in the protonated form capable of promoting cytosolic acidification upon cell entry. […] To provide experimental support for these hypotheses, we measured the change in cytosolic pH in UCA-treated cells. […]

[5] = cited from earlier work; for imidazolyl pKa: Roberts et al. 1982, Krien & Kermici 2000
histamine receptors = conditions: Laihia, 1998; cited from earlier work
[6] = 3 mM UCA, extracellular pH 6.1-7.7, effect below pH 7
[7] = pH left unadjusted, nominal pH 6.5
[8] = pH left unadjusted, nominal pH 7.4

For `O=C(O)/C=C\c1c[nH]cn1` [cis-UCA, cis-urocanic acid], the “recovery of [14C]UCA activity in protein-free supernatant” value (neutrophil cytosol; 10% TCA precipitation of cytosolic proteins, cis n=9, trans n=4) was 102%±3.9%, the “effect on intracellular pH (nigericin calibration)” value (“effect on intracellular pH” for short) (neutrophils [1]; 0.3 mM UCA, same pH range) was “much smaller effect” and the “effect on intracellular pH” value (neutrophils [1]; [6]) was “lowers the intracellular pH”. The “effect on intracellular BCECF signal” value (neutrophils [1]; 3 mM UCA) was “no significant effect”, the “inhibition of respiratory burst chemiluminescence” value (shortened to “inhibition”) (neutrophils [2]; pH adjusted back to 6.5, n=3) was 44%±1.3% and the “inhibition” value (neutrophils [2]; pH adjusted back to 7.4) was 15%±8.4%. The “inhibition” value (neutrophils [2]; [7]) was 48%±1.6%, the “inhibition” value (neutrophils [2]; [8]) was 41%±10% and the “pH of test solution after UCA supplementation” value (from here on “pH of test solution”) ([3]; nominal pH 6.5) was 6.33±0.07. For the same compound, the “pH of test solution” value ([3]; nominal pH 7.4) was 6.60±0.02, the “effect on pH of HBSS buffer” value [3] was “almost no effect” and the “fraction in protonated state” value [4] was “over 70%”. The “pKa of the carboxyl group” value ([5]; Roberts 1982) was about 3.3, the “imidazolyl pKa” value [5] was about 7.0 and the “binding to histamine receptors” value (histamine receptors) was “does not directly bind”.
With `O=C(O)C=Cc1c[nH]cn1` [trans-UCA, 3-(1H-imidazol-4-yl)-2-propenoic acid, reference compound] the “recovery of [14C]UCA activity in protein-free supernatant” value (neutrophil cytosol; human) was 100.2%±0.9%, the “effect on intracellular pH” value (neutrophils [1]; [6]) was “only a minor effect” and the “effect on intracellular BCECF signal” value (neutrophils [1]; 3 mM UCA) was “no significant effect”. For the same compound, the “inhibition” value (neutrophils [2]; pH adjusted back to 6.5, n=3) was 14%±4.0%, the “inhibition” value (neutrophils [2]; pH adjusted back to 7.4) was “no effect” and the “inhibition” value (neutrophils [2]; [7]) was 48%±4.0%. The “inhibition” value (neutrophils [2]; [8]) was 31%±8.4%, the “pH of test solution” value ([3]; nominal pH 6.5) was 5.87±0.06 and the “pH of test solution” value ([3]; nominal pH 7.4) was 6.22±0.02. The “effect on pH of HBSS buffer” value [3] was “markedly reduce the pH; also recorded: dropped the pH”, the “fraction in deprotonated state” value [4] was 70% and the “imidazolyl pKa” value [5] was about 6.1.
